Assay results reported in the kinase profiling compilation of Christmann-Franck et al. (2016).

biological target: PRKCA (human) (UniProt P17252); experiment: radiometric filter-binding kinase assay, Kinase HotSpot; details: compound 0.5 µM; ATP 10 µM

| Structure (SMILES) | residual activity [%] |
| --- | --- |
| Nc1nc(Nc2ccc(S(N)(=O)=O)cc2)nn1C(=S)Nc1c(F)cccc1F | 46.2 |
| O=C1Cc2c([nH]c3ccc([N+](=O)[O-])cc23)-c2ccccc2N1 | 59.9 |
| Cc1ccc(NC(=O)c2ccc(CN3CCN(C)CC3)cc2)cc1Nc1nc(-c2cccnc2)cs1 | 110 |
| O=c1cc(N2CCNCC2)oc2c(-c3ccccc3)cccc12 | 99.1 |

biological target: PRKCD (human) (UniProt Q05655); experiment: as above; details: compound 0.5 µM; ATP 10 µM

| Structure (SMILES) | residual activity [%] |
| --- | --- |
| Nc1nc(Nc2ccc(S(N)(=O)=O)cc2)nn1C(=S)Nc1c(F)cccc1F | 22.2 |
| O=C1Cc2c([nH]c3ccc([N+](=O)[O-])cc23)-c2ccccc2N1 | 79.8 |
| Cc1ccc(NC(=O)c2ccc(CN3CCN(C)CC3)cc2)cc1Nc1nc(-c2cccnc2)cs1 | 97.9 |
| O=c1cc(N2CCNCC2)oc2c(-c3ccccc3)cccc12 | 99.6 |

biological target: PAK4 (human) (UniProt O96013); experiment: as above; details: compound 0.5 µM; ATP 10 µM

| Structure (SMILES) | residual activity [%] |
| --- | --- |
| Nc1nc(Nc2ccc(S(N)(=O)=O)cc2)nn1C(=S)Nc1c(F)cccc1F | 47.6 |
| O=C1Cc2c([nH]c3ccc([N+](=O)[O-])cc23)-c2ccccc2N1 | 93.9 |
| Cc1ccc(NC(=O)c2ccc(CN3CCN(C)CC3)cc2)cc1Nc1nc(-c2cccnc2)cs1 | 103 |
| O=c1cc(N2CCNCC2)oc2c(-c3ccccc3)cccc12 | 81.1 |

biological target: RPS6KA3 KD1 KD2 (human) (UniProt P51812); experiment: as above; details: compound 0.5 µM; ATP 10 µM

| Structure (SMILES) | residual activity [%] |
| --- | --- |
| Nc1nc(Nc2ccc(S(N)(=O)=O)cc2)nn1C(=S)Nc1c(F)cccc1F | -0.692 |
| O=C1Cc2c([nH]c3ccc([N+](=O)[O-])cc23)-c2ccccc2N1 | 70.6 |
| Cc1ccc(NC(=O)c2ccc(CN3CCN(C)CC3)cc2)cc1Nc1nc(-c2cccnc2)cs1 | 93.6 |
| O=c1cc(N2CCNCC2)oc2c(-c3ccccc3)cccc12 | 101 |

biological target: IKBKE (human) (UniProt Q14164); experiment: as above; details: compound 0.5 µM; ATP 10 µM
Sequence (Q14164 whole entry, looked up): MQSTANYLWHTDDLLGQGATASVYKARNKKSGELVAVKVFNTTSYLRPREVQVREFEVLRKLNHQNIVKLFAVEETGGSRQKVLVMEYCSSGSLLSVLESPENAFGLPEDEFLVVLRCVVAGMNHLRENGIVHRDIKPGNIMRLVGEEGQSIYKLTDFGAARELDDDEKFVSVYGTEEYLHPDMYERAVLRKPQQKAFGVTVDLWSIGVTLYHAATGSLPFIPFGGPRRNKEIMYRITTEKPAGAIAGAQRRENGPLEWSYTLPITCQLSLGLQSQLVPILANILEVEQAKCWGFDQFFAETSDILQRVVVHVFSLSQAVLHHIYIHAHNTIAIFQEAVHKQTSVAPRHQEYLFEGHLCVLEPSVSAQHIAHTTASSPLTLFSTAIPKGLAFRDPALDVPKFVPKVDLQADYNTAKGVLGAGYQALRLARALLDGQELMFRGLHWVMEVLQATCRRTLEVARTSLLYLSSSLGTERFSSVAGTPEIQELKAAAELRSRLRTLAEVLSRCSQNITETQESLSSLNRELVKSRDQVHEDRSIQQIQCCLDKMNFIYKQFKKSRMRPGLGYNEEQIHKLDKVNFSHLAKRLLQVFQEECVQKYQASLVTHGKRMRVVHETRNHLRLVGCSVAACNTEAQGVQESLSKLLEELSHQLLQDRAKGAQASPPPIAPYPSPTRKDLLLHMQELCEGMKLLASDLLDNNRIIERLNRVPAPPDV

| Structure (SMILES) | residual activity [%] |
| --- | --- |
| Nc1nc(Nc2ccc(S(N)(=O)=O)cc2)nn1C(=S)Nc1c(F)cccc1F | 67.2 |
| O=C1Cc2c([nH]c3ccc([N+](=O)[O-])cc23)-c2ccccc2N1 | 93.4 |
| Cc1ccc(NC(=O)c2ccc(CN3CCN(C)CC3)cc2)cc1Nc1nc(-c2cccnc2)cs1 | 97.2 |
| O=c1cc(N2CCNCC2)oc2c(-c3ccccc3)cccc12 | 88.1 |

biological target: PLK2 (human) (UniProt Q9NYY3); experiment: as above; details: compound 0.5 µM; ATP 10 µM

| Structure (SMILES) | residual activity [%] |
| --- | --- |
| Nc1nc(Nc2ccc(S(N)(=O)=O)cc2)nn1C(=S)Nc1c(F)cccc1F | 88.5 |
| O=C1Cc2c([nH]c3ccc([N+](=O)[O-])cc23)-c2ccccc2N1 | 106 |
| Cc1ccc(NC(=O)c2ccc(CN3CCN(C)CC3)cc2)cc1Nc1nc(-c2cccnc2)cs1 | 97.9 |
| O=c1cc(N2CCNCC2)oc2c(-c3ccccc3)cccc12 | 98.9 |

biological target: MUSK (human) (UniProt O15146); experiment: as above; details: compound 0.5 µM; ATP 10 µM

| Structure (SMILES) | residual activity [%] |
| --- | --- |
| Nc1nc(Nc2ccc(S(N)(=O)=O)cc2)nn1C(=S)Nc1c(F)cccc1F | 8.02 |
| O=C1Cc2c([nH]c3ccc([N+](=O)[O-])cc23)-c2ccccc2N1 | 68.5 |
| Cc1ccc(NC(=O)c2ccc(CN3CCN(C)CC3)cc2)cc1Nc1nc(-c2cccnc2)cs1 | 99 |
| O=c1cc(N2CCNCC2)oc2c(-c3ccccc3)cccc12 | 103 |

biological target: PIM1 (human) (UniProt P11309); experiment: as above; details: compound 0.5 µM; ATP 10 µM
Sequence (P11309 whole entry, looked up): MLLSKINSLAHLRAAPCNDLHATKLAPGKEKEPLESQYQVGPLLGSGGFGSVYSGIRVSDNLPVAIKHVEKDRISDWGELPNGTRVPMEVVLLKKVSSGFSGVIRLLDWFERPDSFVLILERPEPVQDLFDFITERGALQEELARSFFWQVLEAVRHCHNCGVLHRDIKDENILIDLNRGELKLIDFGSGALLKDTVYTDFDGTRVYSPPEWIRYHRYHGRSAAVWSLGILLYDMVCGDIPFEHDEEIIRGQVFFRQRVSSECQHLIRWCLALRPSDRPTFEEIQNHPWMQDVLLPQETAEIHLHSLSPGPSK

| Structure (SMILES) | residual activity [%] |
| --- | --- |
| Nc1nc(Nc2ccc(S(N)(=O)=O)cc2)nn1C(=S)Nc1c(F)cccc1F | 90.7 |
| O=C1Cc2c([nH]c3ccc([N+](=O)[O-])cc23)-c2ccccc2N1 | 92 |
| Cc1ccc(NC(=O)c2ccc(CN3CCN(C)CC3)cc2)cc1Nc1nc(-c2cccnc2)cs1 | 86.4 |
| O=c1cc(N2CCNCC2)oc2c(-c3ccccc3)cccc12 | 92.4 |

biological target: GRK5 (human) (UniProt P34947); experiment: as above; details: compound 0.5 µM; ATP 10 µM
Sequence (P34947 whole entry, looked up): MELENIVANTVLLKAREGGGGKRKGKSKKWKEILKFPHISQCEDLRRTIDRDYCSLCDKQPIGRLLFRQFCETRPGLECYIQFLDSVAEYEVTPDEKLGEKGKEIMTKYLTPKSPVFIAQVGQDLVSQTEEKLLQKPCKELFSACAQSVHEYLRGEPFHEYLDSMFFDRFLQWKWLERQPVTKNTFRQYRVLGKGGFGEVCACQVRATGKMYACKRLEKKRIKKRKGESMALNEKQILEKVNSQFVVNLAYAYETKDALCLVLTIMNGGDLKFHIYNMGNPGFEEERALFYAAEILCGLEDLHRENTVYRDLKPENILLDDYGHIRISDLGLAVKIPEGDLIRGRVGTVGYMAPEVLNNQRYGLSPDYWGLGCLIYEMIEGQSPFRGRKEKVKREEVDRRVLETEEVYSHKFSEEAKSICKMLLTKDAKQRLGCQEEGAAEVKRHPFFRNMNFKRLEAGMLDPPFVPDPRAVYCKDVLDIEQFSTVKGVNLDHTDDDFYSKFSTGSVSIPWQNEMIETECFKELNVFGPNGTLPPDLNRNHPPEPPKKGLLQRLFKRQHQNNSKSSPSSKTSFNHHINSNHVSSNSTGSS

| Structure (SMILES) | residual activity [%] |
| --- | --- |
| Nc1nc(Nc2ccc(S(N)(=O)=O)cc2)nn1C(=S)Nc1c(F)cccc1F | 75.6 |
| O=C1Cc2c([nH]c3ccc([N+](=O)[O-])cc23)-c2ccccc2N1 | 107 |
| Cc1ccc(NC(=O)c2ccc(CN3CCN(C)CC3)cc2)cc1Nc1nc(-c2cccnc2)cs1 | 106 |
| O=c1cc(N2CCNCC2)oc2c(-c3ccccc3)cccc12 | 103 |

biological target: PIM3 (human) (UniProt Q86V86); experiment: as above; details: compound 0.5 µM; ATP 10 µM

| Structure (SMILES) | residual activity [%] |
| --- | --- |
| Nc1nc(Nc2ccc(S(N)(=O)=O)cc2)nn1C(=S)Nc1c(F)cccc1F | 89.1 |
| O=C1Cc2c([nH]c3ccc([N+](=O)[O-])cc23)-c2ccccc2N1 | 62.3 |
| Cc1ccc(NC(=O)c2ccc(CN3CCN(C)CC3)cc2)cc1Nc1nc(-c2cccnc2)cs1 | 73.7 |
| O=c1cc(N2CCNCC2)oc2c(-c3ccccc3)cccc12 | 93.5 |

biological target: PLK3 (human) (UniProt Q9H4B4); experiment: as above; details: compound 0.5 µM; ATP 10 µM

| Structure (SMILES) | residual activity [%] |
| --- | --- |
| Nc1nc(Nc2ccc(S(N)(=O)=O)cc2)nn1C(=S)Nc1c(F)cccc1F | 92.2 |
| O=C1Cc2c([nH]c3ccc([N+](=O)[O-])cc23)-c2ccccc2N1 | 98.8 |
| Cc1ccc(NC(=O)c2ccc(CN3CCN(C)CC3)cc2)cc1Nc1nc(-c2cccnc2)cs1 | 101 |
| O=c1cc(N2CCNCC2)oc2c(-c3ccccc3)cccc12 | 104 |

biological target: MAPK13 (human) (UniProt O15264); experiment: as above; details: compound 0.5 µM; ATP 10 µM

| Structure (SMILES) | residual activity [%] |
| --- | --- |
| Nc1nc(Nc2ccc(S(N)(=O)=O)cc2)nn1C(=S)Nc1c(F)cccc1F | 77.1 |
| Cc1ccc(NC(=O)c2ccc(CN3CCN(C)CC3)cc2)cc1Nc1nc(-c2cccnc2)cs1 | 101 |
| O=c1cc(N2CCNCC2)oc2c(-c3ccccc3)cccc12 | 104 |

biological target: WNK2 (human) (UniProt Q9Y3S1); experiment: as above; details: compound 0.5 µM; ATP 10 µM

| Structure (SMILES) | residual activity [%] |
| --- | --- |
| Nc1nc(Nc2ccc(S(N)(=O)=O)cc2)nn1C(=S)Nc1c(F)cccc1F | 97.9 |
| O=C1Cc2c([nH]c3ccc([N+](=O)[O-])cc23)-c2ccccc2N1 | 116 |
| Cc1ccc(NC(=O)c2ccc(CN3CCN(C)CC3)cc2)cc1Nc1nc(-c2cccnc2)cs1 | 99.2 |
| O=c1cc(N2CCNCC2)oc2c(-c3ccccc3)cccc12 | 111 |

biological target: PDPK1 (human) (UniProt O15530); experiment: as above; details: compound 0.5 µM; ATP 10 µM
Sequence (O15530 whole entry, looked up): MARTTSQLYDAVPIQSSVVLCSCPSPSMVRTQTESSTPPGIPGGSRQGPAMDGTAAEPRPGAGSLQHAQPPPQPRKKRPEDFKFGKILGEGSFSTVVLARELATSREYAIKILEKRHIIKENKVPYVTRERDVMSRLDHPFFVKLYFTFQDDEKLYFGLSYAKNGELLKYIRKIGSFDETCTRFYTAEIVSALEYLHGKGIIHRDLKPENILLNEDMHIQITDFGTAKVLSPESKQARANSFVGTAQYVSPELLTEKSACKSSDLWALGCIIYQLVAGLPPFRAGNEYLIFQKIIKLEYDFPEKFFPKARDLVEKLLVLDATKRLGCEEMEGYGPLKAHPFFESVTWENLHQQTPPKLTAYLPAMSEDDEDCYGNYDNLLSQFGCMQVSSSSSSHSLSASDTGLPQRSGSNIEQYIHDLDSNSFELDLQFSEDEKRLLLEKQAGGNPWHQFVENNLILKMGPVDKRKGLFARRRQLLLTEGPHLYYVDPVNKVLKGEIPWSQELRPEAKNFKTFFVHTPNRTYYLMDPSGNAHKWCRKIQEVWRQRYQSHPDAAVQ

| Structure (SMILES) | residual activity [%] |
| --- | --- |
| Nc1nc(Nc2ccc(S(N)(=O)=O)cc2)nn1C(=S)Nc1c(F)cccc1F | 19.3 |
| O=C1Cc2c([nH]c3ccc([N+](=O)[O-])cc23)-c2ccccc2N1 | 93.7 |
| Cc1ccc(NC(=O)c2ccc(CN3CCN(C)CC3)cc2)cc1Nc1nc(-c2cccnc2)cs1 | 101 |
| O=c1cc(N2CCNCC2)oc2c(-c3ccccc3)cccc12 | 110 |

biological target: INSR (human) (UniProt P06213); experiment: as above; details: compound 0.5 µM; ATP 10 µM
Sequence (P06213 whole entry, looked up): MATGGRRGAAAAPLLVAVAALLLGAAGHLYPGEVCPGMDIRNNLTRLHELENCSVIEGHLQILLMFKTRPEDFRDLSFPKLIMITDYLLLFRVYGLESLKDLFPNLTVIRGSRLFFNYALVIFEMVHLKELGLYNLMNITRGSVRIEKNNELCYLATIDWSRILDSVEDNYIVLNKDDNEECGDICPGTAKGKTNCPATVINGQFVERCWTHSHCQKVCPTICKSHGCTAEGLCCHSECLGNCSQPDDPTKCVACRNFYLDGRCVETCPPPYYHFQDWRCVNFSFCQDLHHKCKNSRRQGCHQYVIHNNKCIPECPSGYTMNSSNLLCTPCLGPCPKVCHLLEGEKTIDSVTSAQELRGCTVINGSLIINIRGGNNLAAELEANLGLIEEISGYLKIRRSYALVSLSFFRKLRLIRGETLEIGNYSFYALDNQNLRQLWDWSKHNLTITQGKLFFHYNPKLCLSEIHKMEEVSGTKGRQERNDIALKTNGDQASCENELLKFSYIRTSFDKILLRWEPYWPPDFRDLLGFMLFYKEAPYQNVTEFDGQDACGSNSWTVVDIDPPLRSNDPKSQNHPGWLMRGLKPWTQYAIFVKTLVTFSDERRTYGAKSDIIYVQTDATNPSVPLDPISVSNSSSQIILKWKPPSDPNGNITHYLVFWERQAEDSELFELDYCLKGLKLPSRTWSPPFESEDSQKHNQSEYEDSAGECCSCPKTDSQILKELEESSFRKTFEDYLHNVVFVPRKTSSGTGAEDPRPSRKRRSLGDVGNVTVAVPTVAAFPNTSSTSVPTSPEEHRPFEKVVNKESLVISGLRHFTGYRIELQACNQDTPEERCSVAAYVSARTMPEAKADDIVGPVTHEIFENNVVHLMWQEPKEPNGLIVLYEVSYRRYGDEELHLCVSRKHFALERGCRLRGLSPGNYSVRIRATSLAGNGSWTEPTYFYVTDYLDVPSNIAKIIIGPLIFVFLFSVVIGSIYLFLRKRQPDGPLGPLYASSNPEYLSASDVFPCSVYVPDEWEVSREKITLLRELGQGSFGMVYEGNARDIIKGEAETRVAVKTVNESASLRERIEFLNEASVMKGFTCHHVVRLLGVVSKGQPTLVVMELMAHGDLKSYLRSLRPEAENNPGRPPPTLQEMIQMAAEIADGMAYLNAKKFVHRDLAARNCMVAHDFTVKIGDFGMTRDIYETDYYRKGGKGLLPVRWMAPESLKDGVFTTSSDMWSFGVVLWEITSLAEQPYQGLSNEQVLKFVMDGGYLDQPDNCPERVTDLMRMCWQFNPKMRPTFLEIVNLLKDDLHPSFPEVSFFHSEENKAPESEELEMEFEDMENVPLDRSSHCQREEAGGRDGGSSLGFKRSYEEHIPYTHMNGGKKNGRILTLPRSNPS

| Structure (SMILES) | residual activity [%] |
| --- | --- |
| O=C1Cc2c([nH]c3ccc([N+](=O)[O-])cc23)-c2ccccc2N1 | 101 |
| Cc1ccc(NC(=O)c2ccc(CN3CCN(C)CC3)cc2)cc1Nc1nc(-c2cccnc2)cs1 | 99 |
| O=c1cc(N2CCNCC2)oc2c(-c3ccccc3)cccc12 | 101 |

biological target: GSG2 (human) (UniProt Q8TF76); experiment: as above; details: compound 0.5 µM; ATP 10 µM

| Structure (SMILES) | residual activity [%] |
| --- | --- |
| Nc1nc(Nc2ccc(S(N)(=O)=O)cc2)nn1C(=S)Nc1c(F)cccc1F | 85.3 |
| O=C1Cc2c([nH]c3ccc([N+](=O)[O-])cc23)-c2ccccc2N1 | 106 |
| Cc1ccc(NC(=O)c2ccc(CN3CCN(C)CC3)cc2)cc1Nc1nc(-c2cccnc2)cs1 | 100 |
| O=c1cc(N2CCNCC2)oc2c(-c3ccccc3)cccc12 | 94.3 |

biological target: EPHA8 (human) (UniProt P29322); experiment: as above; details: compound 0.5 µM; ATP 10 µM

| Structure (SMILES) | residual activity [%] |
| --- | --- |
| Nc1nc(Nc2ccc(S(N)(=O)=O)cc2)nn1C(=S)Nc1c(F)cccc1F | 98.5 |
| O=C1Cc2c([nH]c3ccc([N+](=O)[O-])cc23)-c2ccccc2N1 | 104 |
| Cc1ccc(NC(=O)c2ccc(CN3CCN(C)CC3)cc2)cc1Nc1nc(-c2cccnc2)cs1 | 93.1 |
| O=c1cc(N2CCNCC2)oc2c(-c3ccccc3)cccc12 | 98.1 |

biological target: AURKA (human) (UniProt O14965); experiment: as above; details: compound 0.5 µM; ATP 10 µM

| Structure (SMILES) | residual activity [%] |
| --- | --- |
| Nc1nc(Nc2ccc(S(N)(=O)=O)cc2)nn1C(=S)Nc1c(F)cccc1F | 1.44 |
| O=C1Cc2c([nH]c3ccc([N+](=O)[O-])cc23)-c2ccccc2N1 | 96 |
| Cc1ccc(NC(=O)c2ccc(CN3CCN(C)CC3)cc2)cc1Nc1nc(-c2cccnc2)cs1 | 105 |
| O=c1cc(N2CCNCC2)oc2c(-c3ccccc3)cccc12 | 105 |

biological target: MAPKAPK5 (human) (UniProt Q8IW41); experiment: as above; details: compound 0.5 µM; ATP 10 µM

| Structure (SMILES) | residual activity [%] |
| --- | --- |
| Nc1nc(Nc2ccc(S(N)(=O)=O)cc2)nn1C(=S)Nc1c(F)cccc1F | 52.2 |
| O=C1Cc2c([nH]c3ccc([N+](=O)[O-])cc23)-c2ccccc2N1 | 92.7 |
| Cc1ccc(NC(=O)c2ccc(CN3CCN(C)CC3)cc2)cc1Nc1nc(-c2cccnc2)cs1 | 103 |
| O=c1cc(N2CCNCC2)oc2c(-c3ccccc3)cccc12 | 104 |

biological target: DAPK1 (human) (UniProt P53355); experiment: as above; details: compound 0.5 µM; ATP 10 µM

| Structure (SMILES) | residual activity [%] |
| --- | --- |
| Nc1nc(Nc2ccc(S(N)(=O)=O)cc2)nn1C(=S)Nc1c(F)cccc1F | 81.3 |
| O=C1Cc2c([nH]c3ccc([N+](=O)[O-])cc23)-c2ccccc2N1 | 104 |
| Cc1ccc(NC(=O)c2ccc(CN3CCN(C)CC3)cc2)cc1Nc1nc(-c2cccnc2)cs1 | 97.5 |
| O=c1cc(N2CCNCC2)oc2c(-c3ccccc3)cccc12 | 91.1 |

biological target: JAK1 JH1 catalytic (human) (UniProt P23458); experiment: as above; details: compound 0.5 µM; ATP 10 µM
Sequence (P23458 whole entry, looked up): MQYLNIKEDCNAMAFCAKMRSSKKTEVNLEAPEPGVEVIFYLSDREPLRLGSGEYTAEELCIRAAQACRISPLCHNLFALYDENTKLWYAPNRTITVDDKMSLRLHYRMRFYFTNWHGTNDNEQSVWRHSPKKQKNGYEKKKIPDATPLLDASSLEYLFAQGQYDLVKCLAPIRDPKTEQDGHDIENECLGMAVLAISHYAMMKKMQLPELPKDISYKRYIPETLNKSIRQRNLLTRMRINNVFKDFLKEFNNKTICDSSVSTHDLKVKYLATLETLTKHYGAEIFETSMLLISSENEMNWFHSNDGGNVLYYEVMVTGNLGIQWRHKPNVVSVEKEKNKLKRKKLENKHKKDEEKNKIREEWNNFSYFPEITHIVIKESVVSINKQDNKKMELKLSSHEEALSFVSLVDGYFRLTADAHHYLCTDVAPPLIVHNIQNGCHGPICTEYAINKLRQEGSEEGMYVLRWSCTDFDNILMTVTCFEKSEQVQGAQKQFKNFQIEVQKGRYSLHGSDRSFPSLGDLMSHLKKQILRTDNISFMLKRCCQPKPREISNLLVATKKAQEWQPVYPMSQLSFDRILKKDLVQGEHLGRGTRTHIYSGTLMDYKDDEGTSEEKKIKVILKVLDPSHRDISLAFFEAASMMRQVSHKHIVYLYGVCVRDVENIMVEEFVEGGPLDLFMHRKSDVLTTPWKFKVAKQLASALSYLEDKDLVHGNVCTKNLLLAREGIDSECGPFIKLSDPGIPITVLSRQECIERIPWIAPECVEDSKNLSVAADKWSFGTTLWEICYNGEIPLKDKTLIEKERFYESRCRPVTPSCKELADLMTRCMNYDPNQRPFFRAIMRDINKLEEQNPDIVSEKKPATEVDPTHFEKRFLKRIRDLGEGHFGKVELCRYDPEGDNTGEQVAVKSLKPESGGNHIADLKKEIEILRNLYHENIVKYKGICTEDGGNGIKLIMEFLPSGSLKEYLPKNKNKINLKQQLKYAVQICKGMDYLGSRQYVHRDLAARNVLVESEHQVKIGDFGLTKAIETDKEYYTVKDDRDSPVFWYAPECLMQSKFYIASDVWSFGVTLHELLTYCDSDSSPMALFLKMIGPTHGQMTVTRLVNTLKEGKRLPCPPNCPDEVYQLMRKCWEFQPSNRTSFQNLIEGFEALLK

| Structure (SMILES) | residual activity [%] |
| --- | --- |
| Nc1nc(Nc2ccc(S(N)(=O)=O)cc2)nn1C(=S)Nc1c(F)cccc1F | 4.86 |
| O=C1Cc2c([nH]c3ccc([N+](=O)[O-])cc23)-c2ccccc2N1 | 97.8 |
| Cc1ccc(NC(=O)c2ccc(CN3CCN(C)CC3)cc2)cc1Nc1nc(-c2cccnc2)cs1 | 98.8 |
| O=c1cc(N2CCNCC2)oc2c(-c3ccccc3)cccc12 | 108 |
